The record followed here is publication PMC6152678, “In Vitro Comparative Study of the Inhibitory Effects of Mangiferin and Its Aglycone Norathyriol towards UDP-Glucuronosyl Transferase (UGT) Isoforms” (Molecules : A Journal of Synthetic Chemistry and Natural …, 2017).

Each structure is given as a SMILES string.

For one series, the target named is T1, UGT2B7 (Homo sapiens, UniProt P16662).
T1 construct: purchased BD Gentest Corp. (Woburn, MA, USA); host or cells: baculovirus-infected insect cells
T1 sequence (P16662 24-529): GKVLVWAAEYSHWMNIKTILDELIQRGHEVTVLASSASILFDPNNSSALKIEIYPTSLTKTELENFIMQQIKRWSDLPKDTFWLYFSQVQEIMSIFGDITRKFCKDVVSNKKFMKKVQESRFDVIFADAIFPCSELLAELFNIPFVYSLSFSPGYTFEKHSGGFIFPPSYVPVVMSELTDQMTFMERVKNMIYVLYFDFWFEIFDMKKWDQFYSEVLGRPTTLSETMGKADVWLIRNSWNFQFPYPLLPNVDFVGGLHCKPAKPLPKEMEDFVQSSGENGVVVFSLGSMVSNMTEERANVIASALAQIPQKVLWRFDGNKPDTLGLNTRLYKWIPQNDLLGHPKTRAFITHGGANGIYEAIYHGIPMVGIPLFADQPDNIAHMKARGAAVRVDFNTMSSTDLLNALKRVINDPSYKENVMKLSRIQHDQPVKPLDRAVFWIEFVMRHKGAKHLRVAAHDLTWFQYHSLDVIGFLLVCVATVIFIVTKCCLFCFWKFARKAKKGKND
Kind of series: Inhibition of recombinant UGT-catalyzed 4-MU glucuronidation. The following applies: pH 7.4, probe 4-methylumbelliferone (4-MU), 350 μM, 100 μM compound, 4-MU probe substrate, negative = activation. It counts as biochemical.

The next series concerns the target T2, UGT1A8 (Homo sapiens, UniProt Q9HAW9).
T2 construct: purchased BD Gentest Corp. (Woburn, MA, USA); host or cells: baculovirus-infected insect cells
T2 sequence (Q9HAW9 26-530): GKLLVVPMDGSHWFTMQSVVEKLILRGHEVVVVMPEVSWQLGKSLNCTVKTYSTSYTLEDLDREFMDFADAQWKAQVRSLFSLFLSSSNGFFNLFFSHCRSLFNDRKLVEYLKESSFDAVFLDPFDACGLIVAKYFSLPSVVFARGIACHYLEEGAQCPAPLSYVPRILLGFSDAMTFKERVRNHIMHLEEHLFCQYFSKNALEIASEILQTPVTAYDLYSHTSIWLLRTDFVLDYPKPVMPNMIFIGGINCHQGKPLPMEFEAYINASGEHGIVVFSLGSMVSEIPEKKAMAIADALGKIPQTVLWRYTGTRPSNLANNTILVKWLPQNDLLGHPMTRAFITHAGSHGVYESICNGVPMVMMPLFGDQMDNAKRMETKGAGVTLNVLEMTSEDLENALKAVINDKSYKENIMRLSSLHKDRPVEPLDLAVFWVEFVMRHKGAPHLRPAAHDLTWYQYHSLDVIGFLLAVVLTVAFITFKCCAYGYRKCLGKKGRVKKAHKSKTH
Described as above. In kind it is biochemical. Conditions: pH 7.4, probe 4-methylumbelliferone (4-MU), 750 μM, 100 μM compound, 4-MU probe substrate, negative = activation.

On to `O=c1c2cc(O)c(O)cc2oc2cc(O)cc(O)c12` [NTR, 1,3,6,7-tetrahydroxyxanthone], for which the inhibition at 120 min, 100 µM at UGT2B7 is 31.8%. Moreover, the inhibition at 30 min, 100 µM on UGT1A8 worked out at 57%.

In the case of `O=c1c2cc(O)c(O)cc2oc2cc(O)c([C@@H]3O[C@H](CO)[C@@H](O)[C@H](O)[C@H]3O)c(O)c12` [MGF, 1,3,6,7-tetrahydroxyxanthone-C-2-β-D-glucoside], at UGT2B7, the inhibition at 120 min, 100 µM is -11.2%. Moreover, on UGT1A8, the inhibition at 30 min, 100 µM is -70.9%.
